Assay results taken from patent US20170184612A1, “USE OF LEUKOCYTES AND NOVEL BIOMARKERS IN THE DIAGNOSIS, CONFIRMATION, AND TREATMENT OF A NEUROLOGICAL DISORDER” (The Trustees of Columbia University in the City of New York, priority 2014, published 2017).

Tests used:
[1] = system: peripheral blood mononuclear cells (PBMC), T cells; assay: ELISpot assay, gamma-interferon release (SFC) after stimulation with a-synuclein epitope pools; type: cell-based, human; conditions: for Pool +: IFNg, Pool Stimulated, number of donors with a positive response, Donors tested 1
Method: (§1) Blood from age matched controls and PD patients were obtained and mononuclear cells were isolated by gradient centrifugation.
(§2) Release of the cytokines gamma-interferon, which measures activation of CD4+ and/or CD8+ T cells, and the interleukin, IL-5, which measures activation of CD4+ T cells was measured by ELISpot assay. […] After 22 hours of stimulation at 37 C, the cells were removed and release of cytokines was measured by colorimetric detection of spot-forming cells (SFC). Confirmed release of cytokine is determined by the presence of a minimum of 20 SFC per million cells.
(§3) The binding algorithms in SubAim 1 predict how well the peptides would bind to MHC if present, but not if they are present in patients. To determine this, the presence of T cell response against the candidate antigens by patient blood-derived peripheral blood mononuclear cells (PBMC) is assessed by ELISPOT assays upon stimulation with the peptides. This assay detects and quantifies cytokine release (in this case, IFNγ and IL-5) from specific activated T cells.
(§4) Data were obtained from blood samples (25 ml) from 44 PD patients and 24 age-matched controls. The experiments were conducted blindly. PBMCs from these samples were isolated and exposed to pools comprising the 122 candidate class I and class II antigens and phosphorylated S129 epitopes generated in Subaim 1. For the PBMCs responsive to the pooled peptides, the response was then deconvoluted to identify individual epitopes.
(§5) PMBC fractions are recovered by standard methods with Ficoll gradient and T cells expansion (Oseroff et al., 2010). The methods for the analysis of T cell reactions and measurement of cytokines production using the enzyme-linked immunosorbent spot (ELISPOT) assay are published in analogous experiments to discover antigens in multiple sclerosis (Lolli et al., 2013) and in hay fever allergens (Oseroff et al., 2010). T cell responses are determined by measuring IFNγ and IL-5 release by ELISPOT. Statistical analysis of differences between populations is expected to be non-parametric and analyzed with the U-Mann-Whitney test. If there were a normal distribution of response, which is a priori unlikely as some patients have no T cell response, with an SD=1, 8 patients per group would be required to provide a p>90% that the study detect a >2 fold difference at a two-sided 0.05 significance level.

[2] = system: peripheral blood mononuclear cells (PBMC), T cells; assay: ELISpot assay, IL-5 release (SFC) after stimulation with a-synuclein epitope pools; type: cell-based, human
Method: as §1, §2, §3, §4, §5

[3] = pool 'Phospho' (phosphorylated peptides)
[4] = Patients Summary, PD patients, of donors tested (peptide)
[5] = Patients Summary, PD patients, single peptide
[6] = Patients Summary, Phospho pool peptides
[7] = Patients Summary, Phospho pool peptides, 10 donors tested
[8] = number of donors positive to the single peptide, second 'Pool Stimulated' section (from r296), 12 donors tested
[9] = peptide + / donors tested (peptide), second 'Pool Stimulated' section (from r296), 12 donors tested
[10] = peptides of pool 'Poshpho', 8 donors tested
[11] = peptides of pool 'Poshpho', 8 donors tested, number of donors positive
[12] = single peptide, second 'Pool Stimulated' section (from r296), 12 donors tested

Row | Substance | Pool + [1] | IFNg Peptide + (donors positive to the peptide) [1, 4] | IFNg Response Frequency [1, 5] [%] | IFNg Total SFC [1, 5] [SFC] | IFNg Peptide + [1, 8] | IFNg Response Frequency [1, 9] [%] | IL-g Peptide + (donors positive to the peptide) [2, 4] | IL-g Response Frequency [2, 5] [%] | IL-g Total SFC [2, 5] [SFC] | IL-g Peptide + [2, 8] | IL-g Response Frequency [2, 9] [%] | IL-g Total SFC [2, 12] [SFC] | IFNg Total SFC [1, 12] [SFC] | IFNg Avg SFC [1, 5] [SFC] | also measured
1 | 3521.0027 (AYEMPSEEGY; listed as Homo sapiens) | 0 | 0 | 0 | 0 | 0 | 0 | 0 | 0 | 0 | 0 | 0 | 0 |  |  | Pool + [1, 3]: 1; IFNg Avg SFC [1, 6]: 700 SFC; IFNg Response Frequency [1, 6]: 20%; IFNg Total SFC [1, 6]: 1400 SFC; IFNg Peptide + (donors positive to the peptide) [1, 7]: 2; IFNg Avg SFC [1, 10]: 53 SFC; IFNg Response Frequency [1, 10]: 13%; IFNg Total SFC [1, 10]: 53 SFC; IFNg Peptide + [1, 11]: 1; IL-g Avg SFC [2, 6]: 530 SFC; IL-g Response Frequency [2, 6]: 20%; IL-g Total SFC [2, 6]: 1060 SFC; IL-g Peptide + (donors positive to the peptide) [2, 7]: 2; IL-g Avg SFC [2, 10]: 87 SFC; IL-g Response Frequency [2, 10]: 13%; IL-g Total SFC [2, 10]: 87 SFC; IL-g Peptide + [2, 11]: 1
2 | 3521.0028 (MPSEEGYQDY; listed as Homo sapiens) | 0 | 0 | 0 | 0 | 0 | 0 | 0 | 0 | 0 | 0 | 0 | 0 |  |  | Pool + [1, 3]: 1; IFNg Avg SFC [1, 6]: 420 SFC; IFNg Response Frequency [1, 6]: 30%; IFNg Total SFC [1, 6]: 1260 SFC; IFNg Peptide + (donors positive to the peptide) [1, 7]: 3; IFNg Avg SFC [1, 10]: 40 SFC; IFNg Response Frequency [1, 10]: 13%; IFNg Total SFC [1, 10]: 40 SFC; IFNg Peptide + [1, 11]: 1; IL-g Avg SFC [2, 6]: 350 SFC; IL-g Response Frequency [2, 6]: 20%; IL-g Total SFC [2, 6]: 700.3 SFC; IL-g Peptide + (donors positive to the peptide) [2, 7]: 2; IL-g Avg SFC [2, 10]: 113 SFC; IL-g Response Frequency [2, 10]: 13%; IL-g Total SFC [2, 10]: 113 SFC; IL-g Peptide + [2, 11]: 1
3 | 3521.0029 (NVGGAVVTGV; listed as Homo sapiens) | 0 | 0 | 0 | 0 | 0 | 0 | 0 | 0 | 0 | 0 | 0 | 0 | 0 |  | 
4 | 3521.0031 (YVGSKTKEGV; listed as Homo sapiens) | 0 | 1 | 17 | 153 |  |  | 0 | 0 | 0 |  |  |  |  | 153 | 
5 | 3521.0032 (GAVVTGVTAV; listed as Homo sapiens) | 1 | 0 | 0 | 0 | 0 | 0 | 0 | 0 | 0 | 0 | 0 | 0 | 0 |  | 
6 | 3521.0033 (VLYVGSKTKK; listed as Homo sapiens) | 1 | 5 | 83 | 1626 |  |  | 3 | 50 | 528 |  |  |  |  | 325 | IL-g Avg SFC [2, 5]: 176 SFC
7 | 3521.0034 (GVLYVGSKTK; listed as Homo sapiens) | 1 | 5 | 83 | 2260 |  |  | 2 | 33 | 284 |  |  |  |  | 452 | IL-g Avg SFC [2, 5]: 142 SFC
8 | 3521.0035 (SIAAATGFVK; listed as Homo sapiens) | 1 | 1 | 25 | 1946 | 0 | 0 | 1 | 25 | 1898 | 1 | 50 | 536 | 0 | 1946 | IL-g Avg SFC [2, 5]: 1898 SFC; IL-g Avg SFC [2, 12]: 536 SFC
9 | 3521.0036 (AGSIAAATGF; listed as Homo sapiens) | 0 | 0 | 0 | 0 | 0 | 0 | 0 | 0 | 0 | 0 | 0 | 0 | 0 |  | 
10 | 3521.0037 (LYVGSKTKEG; listed as Homo sapiens) | 0 | 1 | 17 | 248 |  |  | 1 | 17 | 754 |  |  |  |  | 248 | IL-g Avg SFC [2, 5]: 754 SFC
11 | 3521.0038 (EMPSEEGYQD; listed as Homo sapiens) | 0 | 0 | 0 | 0 |  |  | 0 | 0 | 0 |  |  |  |  |  | Pool + [1, 3]: 1; IFNg Avg SFC [1, 6]: 502 SFC; IFNg Response Frequency [1, 6]: 30%; IFNg Total SFC [1, 6]: 1507 SFC; IFNg Peptide + (donors positive to the peptide) [1, 7]: 3; IFNg Avg SFC [1, 10]: 40 SFC; IFNg Response Frequency [1, 10]: 13%; IFNg Total SFC [1, 10]: 40 SFC; IFNg Peptide + [1, 11]: 1; IL-g Avg SFC [2, 6]: 620 SFC; IL-g Response Frequency [2, 6]: 10%; IL-g Total SFC [2, 6]: 620 SFC; IL-g Peptide + (donors positive to the peptide) [2, 7]: 1; IL-g Avg SFC [2, 10]: 33 SFC; IL-g Response Frequency [2, 10]: 13%; IL-g Total SFC [2, 10]: 33 SFC; IL-g Peptide + [2, 11]: 1
12 | 3521.0041 (EGILEDMPVD; listed as Homo sapiens) | 0 | 0 | 0 | 0 | 0 | 0 | 0 | 0 | 0 | 0 | 0 | 0 |  |  | 
13 | 3521.0042 (AGKTKEGVLY; listed as Homo sapiens) | 0 | 1 | 13 | 31 | 0 | 0 | 0 | 0 | 0 | 0 | 0 | 0 | 0 | 31 | 
14 | 3521.0044 (GVTAVAQKTV; listed as Homo sapiens) | 0 | 0 | 0 | 0 | 0 | 0 | 0 | 0 | 0 | 0 | 0 | 0 | 0 |  | 
